According to patent US12186312B2, “Sleep improving agent” (Amino Up Co., Ltd., priority 2016, dated 2025):

Legend:
[1] = tested on: HSP70 mRNA expression in human promyelocytic leukemia cells (HL-60 cells); experiment: Evaluation of HSP70 mRNA expression-inducing activity in HL-60 cells; assay type: cell-based; conditions: for concentration at which HSP70 mRNA expression inducing ability was increased up to 150% relative to the control: 4 hours at 37° C., corrected with beta 2 microglobulin gene; for HSP70 mRNA expression as compared with the control: 4 hours, FIGS. 1-3, percentages for the control
Method: The HSP70 expression-inducing activity by Compounds 1-3 was evaluated by measuring a HSP70 mRNA expression level.
Human promyelocytic leukemia cells (HL-60 cells) was suspended in RPMI 1640 medium supplemented with 10% fetal bovine serum, and was transferred into a 1.5 mL tube (45,000 cells/0.9 mL). To the tube was added 0.1 mL of each sample that had been prepared in a 1% DMSO solution and the tube was allowed to stand at 37° C. for 4 hours. To a control was added 0.1 mL of 1% DMSO solution. After cultured for 4 hours, the cells was centrifuged by a small refrigerated centrifuge (1,000 g×5 minutes) to precipitate the HL-60 cells. After removal of the supernatant, the cells were lysed in 0.25 mL Trizol (manufactured by Thermo Fisher Scientific) and then total RNA was extracted according to the protocol. The RNA was dissolved in RNase-free water, and the concentration of the RNA (wave length 260 nm) was measured by using a microvolume spectrophotometer NanoDrop 2000/2000c (manufactured by Thermo Fisher Scientific). The RNA solution was diluted with RNase-free water so as to have a concentration of 50 ng/mL, and then cDNA was synthesized by using ReverTra Ace® qPCR RT Kit (manufactured by TOYOBO). The reaction liquid (10 μl) after the reverse transcription was diluted with RNase-free water so as to be 100 μL, and then used as a template for PCR. Beta 2 microglobulin gene was used as an internal control gene for correction of the HSP70 gene expression. The primer sequences of genes used for the PCR reaction are as follows.
The expression was analyzed by using CFX Connect Real-Time PCR Detection System (manufactured by Bio-rad). 10 μL of the PCR reaction liquid was incubated at 95° C. for 3 minutes (initial denaturation), followed by repetition of 55 cycles comprising denaturation at 95° C. for 10 seconds, and annealing and extension at 57.8° C. for 30 seconds. Finally, the melting curve was measured every 0.2° C. in the range from 65° C. to 95° C. Expression levels of HSP70 gene and internal standard gene were analyzed using Bio-Rad CFX Manager 3.1.

male Wistar rats = experiment: Light period activity level after 8-hour phase advance (model of mild sleep disorder), dietary administration; assay type: in vivo, rat; conditions: for activity level of Day 1 and Day 2 during the light period compared with the Control group: Dunnett test with mixed model for repeated measures; for activity level on Day 1, light period (12 hours) after the phase advance compared with the Control group: Dunnett test
Text: Firstly, 7-week old male Wistar rats were implanted intraperitoneally with a small activity meter (NanoTag®, Kissei Comtech Co., Ltd.). Subsequently, after a week of recovery period, the rats were divided into four groups (Control group, Compound A-1 group, Compound A-2 group, and Compound A-3 group; n=17 each) shown in Table 1 by stratified randomization assignment using body weight as an index, and test diets were dietary administered to them. At the 15th day from the start of dietary administration, the light/dark cycle was advanced by 8 hours, and after that, dietary administration of test diets was continued for 2 weeks. The light/dark cycle of the breeding environment excluding the phase advance date was set to 12 hours cycle, and the illuminance of the light period was set to be approximately 200 1× (185-230 1×). In this model of mild sleep disorder with the phase advance, the influence of test feed administration on the light period activity level after the phase advance was examined.
The test was carried out by a two-sided test, the significance level of the test was set to 5%, and the trend difference was 10% on both sides. For the analysis, SAS software release 9.3 (manufactured by SAS Institute Japan Ltd.) was used.

Compound | concentration at which HSP70 mRNA expression inducing ability was increased up to 150% relative to the control [1] [mg/mL] | HSP70 mRNA expression as compared with the control [1] | activity level of Day 1 and Day 2 during the light period compared with the Control group (male Wistar rats; Compound A-2 group: MF containing 0.005% of Compound A (6.25 mg/kg BW/day), P=0.0481) | activity level on Day 1, light period (12 hours) after the phase advance compared with the Control group (male Wistar rats; Compound A-2 group: MF containing 0.005% of Compound A (6.25 mg/kg BW/day), P=0.016) | activity level of Day 1 and Day 2 during the light period compared with the Control group (male Wistar rats; Compound A-3 group: MF containing 0.05% of Compound A (62.46 mg/kg BW/day), P=0.0978) | activity level on Day 1, light period (12 hours) after the phase advance compared with the Control group (male Wistar rats; Compound A-3 group: MF containing 0.05% of Compound A (62.46 mg/kg BW/day), P=0.0536)
O=C1N[C@@H](Cc2ccc(O)cc2)C(=O)N2CCC[C@@H]12 [Compound 3, (3S,8aS)-3-(4-hydroxybenzyl)hexahydropyrrolo[1,2-a]pyrazine-1,4-dione] | 0.101 | enhanced mRNA expression of HSP70 gene |  |  |  | 
O=C1N[C@@H](Cc2ccccc2)C(=O)N2CCC[C@@H]12 [Compound 2, (3S,8aS)-3-benzylhexahydropyrrolo[1,2-a]pyrazine-1,4-dione] | 0.045 | enhanced mRNA expression of HSP70 gene |  |  |  | 
CC(C)C[C@@H]1NC(=O)[C@@H]2CCCN2C1=O [Compound 1, (3S,8aS)-3-isobutylhexahydropyrrolo[1,2-a]pyrazine-1,4-dione] | 0.083 | enhanced mRNA expression of HSP70 gene | significantly inhibited the activity level | significantly suppressed the activity level | tendency to suppress the activity level | tended to suppress the activity level
